# Source: paper PMC9532951, “Identification and characterization of a novel SNAT2 (SLC38A2) inhibitor reveals synergy with glucose transport inhibition in cancer cells” (Frontiers in Pharmacology, 2022)
# Several values for one entry are separate records, joined by “and”; a condition that tells them apart may be missing. Equal entries are not always repeated.
# What was measured:
# SNAT1/2 [1] = assay: [14C]glutamine uptake in HCC1806 cells; type: cell-based, human
# Method: (§1) Functional characterisation of plasma membrane transporters in human cancer cells was determined at 37°C using an array of radiolabelled amino acid substrates. Modified Hanks HEPES-buffered salts solution (mHBSS; 137 mM NaCl; 5.4 mM KCl; 2.7 mM K2HPO4; 1 mM CaCl2; 0.5 mM MgCl2; 0.44 mM KH2PO4; 0.4 mM MgSO4; 5 mM D-glucose; 5 mM HEPES; pH 7.4) was used to wash and incubate cells where sodium dependent transport was measured, while N-methyl-D-glucamine (NMDG) and potassium salts substituted sodium in NMDG mHBSS to measure sodium independent uptake. For the assay, cells were seeded in 35 mm dishes and, once confluent, were washed thrice with warm mHBSS solution and incubated with mHBSS containing an 100 µM amino acid at a final specific activity of ≥2000 cpm/nmol (U-[^14C]amino acids were from PerkinElmer). After 6 min, cells were washed thrice with ice-cold mHBSS, lysed with 500 µl of 0.1 M HCl, detached with a cell scraper and triturated. A 400 µl aliquot was used for scintillation counting, while the remainder was saved for protein mass quantification by Bradford assay. Transport rates were normalised to the protein content of the culture dish.
# SNAT1/2 [2] = assay: FMP assay: depolarisation by amino acid substrates in amino acid depleted HCC1806 cells; type: cell-based, human; settings: for FMP fluorescence reading: amino acid 1 mM final
# Method: The FLIPR Membrane Potential Blue Explorer Kit (Molecular Devices) was used to characterise inhibitors and to optimise a high-throughput compound screen. Cells were seeded at approximately 60,000 cells/well on a 96-well plate and allowed to attach and grow overnight in a cell incubator. […] Cells were then washed once with mHBSS and incubated with 50 µl of the mHBSS-resuspended FMP assay dye and 50 µl of mHBSS (with or without inhibitors) and incubated at room temperature for 30 min. The plate was then placed in an EnSpire Multimode plate reader (PerkinElmer) and four sequential measurements of fluorescence were recorded as a baseline reference. Immediately after the baseline measurements were taken, 25 µl of 5 mM glutamine dissolved in mHBSS was injected into each well and the plate was shaken orbitally for 5 s before a series of consecutive fluorescence measurements were taken. The excitation wavelength was set to 530 nm and the emission was detected at 565 nm. […] After the assay was complete, the liquid content of the plate was carefully removed, and the cell monolayer inspected to ensure it remained intact throughout the course of the assay.
# SNAT1 and SNAT2 [3] = assay: FMP assay in HCC1806 clones C10 (ASCT2ko) and D126 (ASCT2ko, SNAT2ko); type: cell-based, human; settings: MeAIB 10 mM; glutamine 1 mM
# Method: (§2) To delete the SNAT2 (SLC38A2) gene in modified HCC1806 cells (clone C10 nullizygous for ASCT2 ([Broer et al., 2019])), the GeneArt CRISPR Nuclease Vector with OFP Reporter Kit (Invitrogen; A21174) was employed and complementary 19–20 bp long single-stranded oligonucleotides with overhangs were designed to produce a guide RNA (gRNA) for the Cas9 nuclease that would target exon 7 of the SNAT2 gene. Colonies were analysed by sequencing using the U6 primer included in the GeneArt CRISPR Nuclease Vector with OFP Reporter kit. Plasmids that contained the correct CRISPR nuclease construct were then used to transfect HCC1806 cells with Lipofectamine 2000 (Invitrogen). Prior to transfection, medium was replaced with 2 ml of fresh DMEM/F-12 (supplemented with 10% heat-inactivated FBS and 2 mM glutamine). Plasmid DNA (4 µg) and 10 µL of Lipofectamine 2000 were incubated separately for 5 min at room temperature in 500 µl of Opti-MEM (Invitrogen) before being combined and incubated for a further 30 min at room temperature. The DNA-Lipofectamine complex was then added to the cells in a dropwise manner and allowed to be absorbed over 6 h at 37°C, after which the medium was renewed with fresh DMEM/F-12. Cells were checked for red fluorescence using an EVOS FL cell imaging system (Thermo Fisher Scientific) 48–72 h post transfection. Subsequently, cells were detached using 0.25% Trypsin EDTA. After harvesting and washing thrice with PBS (pH 7.4), cells were resuspended in PBS (pH 7.4) supplemented with 5 mM glucose and 1% dialysed and heat inactivated FBS and passed through a 100 μm cell strainer. The cell filtrate was then pelleted once more and resuspended in the same buffer. Cells were sorted using an ARIA II FACS machine and individually dispensed into the wells of a 96-well plate. Nullizygous clones were identified using a series of assays including the FLIPR membrane potential assay, western blotting and sequencing.
# The FLIPR Membrane Potential Blue Explorer Kit (Molecular Devices) was used to characterise inhibitors and to optimise a high-throughput compound screen. Cells were seeded at approximately 60,000 cells/well on a 96-well plate and allowed to attach and grow overnight in a cell incubator. The next day, the cells were washed once with mHBSS and incubated in a starvation medium (composed of mHBSS with 1% dialysed heat-inactivated FBS, 23 mM NaHCO3, 10 U/ml penicillin and 10 μg/ml streptomycin) for 24 h. Cells were then washed once with mHBSS and incubated with 50 µl of the mHBSS-resuspended FMP assay dye and 50 µl of mHBSS (with or without inhibitors) and incubated at room temperature for 30 min. The plate was then placed in an EnSpire Multimode plate reader (PerkinElmer) and four sequential measurements of fluorescence were recorded as a baseline reference. Immediately after the baseline measurements were taken, 25 µl of 5 mM glutamine dissolved in mHBSS was injected into each well and the plate was shaken orbitally for 5 s before a series of consecutive fluorescence measurements were taken. The excitation wavelength was set to 530 nm and the emission was detected at 565 nm. The Δ fluorescent signal reported in the figures was taken 30 s after substrate addition. After the assay was complete, the liquid content of the plate was carefully removed, and the cell monolayer inspected to ensure it remained intact throughout the course of the assay.
# SNAT1 = target: T1, SNAT1 (Homo sapiens, UniProt Q9H2H9); assay: Alanine uptake in HCC1806 D126 (ASCT2ko, SNAT2ko) cells; type: cell-based
# T1 construct: SNAT1 remained active as indicated by the Na^+-dependence of alanine uptake; endogenous in cells; host or cells: HCC1806 clone D126 (ASCT2ko, SNAT2ko), amino acid depleted for 24 h
# T1 sequence (Q9H2H9 1-487): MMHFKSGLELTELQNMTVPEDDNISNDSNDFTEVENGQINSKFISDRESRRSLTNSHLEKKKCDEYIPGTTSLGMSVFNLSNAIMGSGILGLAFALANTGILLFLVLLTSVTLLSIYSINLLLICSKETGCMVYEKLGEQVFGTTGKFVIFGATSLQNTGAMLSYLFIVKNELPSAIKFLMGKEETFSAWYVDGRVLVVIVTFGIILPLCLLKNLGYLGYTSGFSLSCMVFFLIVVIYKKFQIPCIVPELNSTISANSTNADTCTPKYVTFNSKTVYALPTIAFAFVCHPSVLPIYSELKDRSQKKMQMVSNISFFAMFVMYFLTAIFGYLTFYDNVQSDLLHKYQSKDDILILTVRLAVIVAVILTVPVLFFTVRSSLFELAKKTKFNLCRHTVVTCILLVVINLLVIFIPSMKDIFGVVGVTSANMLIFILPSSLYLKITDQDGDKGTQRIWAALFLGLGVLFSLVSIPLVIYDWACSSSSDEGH
# Method: as §2, §1
# SNAT2 = assay: Radiolabelled proline uptake in amino acid depleted SKOV3 cells; type: cell-based, human; settings: for inhibition of proline uptake: 10 mM
# Method: as §1
# IC50 were calculated using equation y=ymax(1−x/x+IC50)
# HCC1806 cells = assay: [14C]alanine uptake in non-depleted HCC1806 cells; type: cell-based, human; settings: amino acid replete HCC1806 cells
# Method: as §1
# SNAT1 and SNAT2 [4] = assay: High-throughput compound screen, FMP assay in 384-well format (primary, confirmatory, control compounds); type: cell-based, human; settings: 10 mM, 1 mM glutamine
# Method: For the high-throughput compound screen, the FMP assay was adapted into a 384-well format within the ANU Centre for Therapeutic Discovery. […] Compounds Australia stores compounds under robust environmental conditions and supplies them in assay ready plate format. We screened 33,934 compounds from the Collection Scaffold Library. Cells (10,000/well) were seeded into Corning 384-well black walled plates (CLS3985; Sigma-Aldrich) using a Multidrop Combi liquid dispensing robot (Thermo Fisher) in a 40 µl volume. Once seeded, cells were allowed to grow in a microplate incubator (Liconic) for 24 h at 37°C (humidified atmosphere with 95% air and 5% CO2). Subsequently, plates were washed thrice with 50 µL of mHBSS using a 405 TS washer (BioTek). Then, 50 µl of starvation medium was added and cells were incubated again for 24 h.
# Assay-ready compound plates (384 well plates containing compound or DMSO controls) were then prepared prior to addition to cells. In addition to the supplied compounds, 5 µl γ-glutamyl-hydroxamate (GHX, 60 mM dissolved in mHBSS, serving as an inhibitor control) was added into inhibitor control wells using a JANUS G3 robot (PerkinElmer). Subsequently, 25 uL of mHBSS was dispensed into all wells of the 384 well plate using a Multidrop Combi. All samples were then mixed using the JANUS G3 robot and 15 µl dispensed on top of the cell monolayer to reach a final concentration of 10.05 µM.
# The FMP dye was solved freshly with mHBSS, 20 µl of which was deposited into each well using the Multidrop Combi, and the cells were incubated at room temperatur for 30 min. Each plate was then placed in an EnVision microplate reader (PerkinElmer) and a single baseline measurement was taken for each well (bottom reads excitation at 531, emission at 579 nm). The plate was then transferred to the Multidrop Combi and 10 µl/well of 5 mM glutamine was dispensed into each well. After linearly shaking for 5 s, microplates were returned to the EnVision microplate reader for a single post-injection measurement per well. The change of fluorescence was measured after 60 s.
# Z′ scores were calculated from the controls onboard each of the 384-well plates assayed in the primary and secondary screen as described by Zhang et al., ([Zhang et al., 1999]). For the control inhibitor γ-glutamyl-hydroxamate (GHX) a Z’ score of 0.717 was determined, which was a sufficient signal for a HTS.
compound,measurement,setting,value
"CNC(C)(C)C(=O)O [MeAIB, N-methyl-aminoisobutyric acid]",Glutamine uptake,"SNAT1/2 [1]; AA+ (growth medium), 100 µM glutamine, replicates 1-3",39.8616 nmol / mg protein x 6 min and 35.3498 nmol / mg protein x 6 min and 40.7838 nmol / mg protein x 6 min
same,Glutamine uptake,"SNAT1/2 [1]; AA- (starvation medium 24 h), 100 µM glutamine, replicates 1-3",8.629 nmol / mg protein x 6 min and 3.7831 nmol / mg protein x 6 min and 8.492 nmol / mg protein x 6 min
same,Glutamine uptake (nmol / mg protein x 6 min),"SNAT1/2 [1]; Figure 3D, replicates 1-3",35.1959 nmol / mg protein x 6 min and 29.1234 nmol / mg protein x 6 min and 25.7847 nmol / mg protein x 6 min
same,reduction of glutamine uptake,"SNAT1/2 [1]; amino acid depleted HCC1806 cells (24 h), 100 µM glutamine",80%
same,inhibition of glutamine uptake,SNAT1/2 [1]; fed HCC1806 cells,barely inhibited
same,FMP response as substrate,SNAT1/2 [2]; 1 mM,weaker signal
same,FMP fluorescence reading,SNAT1/2 [2]; t=0 s,49084 and 50100 and 40663
same,FMP fluorescence reading,SNAT1/2 [2]; t=15 s,81984 and 86589 and 75934
same,FMP fluorescence reading,SNAT1/2 [2]; t=30 s,86634 and 91101 and 78520
same,FMP fluorescence reading,SNAT1/2 [2]; t=45 s,90066 and 93398 and 80464
same,FMP fluorescence reading,SNAT1/2 [2]; t=60 s,92350 and 95113 and 80900
same,FMP fluorescence reading,SNAT1/2 [2]; t=75 s,92919 and 96006 and 80942
same,FMP fluorescence reading,SNAT1/2 [2]; t=90 s,93944 and 96169 and 81331
same,FMP fluorescence reading,SNAT1/2 [2]; t=105 s,93680 and 96448 and 80487
same,FMP fluorescence reading,SNAT1/2 [2]; t=120 s,93733 and 95947 and 80206
same,FMP fluorescence reading,SNAT1/2 [2]; t=135 s,93032 and 95155 and 78841
same,FMP fluorescence reading,SNAT1/2 [2]; t=-15 s,48467 and 50314 and 40490
same,FMP fluorescence reading,"SNAT1/2 [2]; t=-30 s, replicates 1-3",48576 and 50230 and 40217
same,"FMP signal in D126 cells (ASCT2ko, SNAT2ko) compared to C10",SNAT1 and SNAT2 [3],42%
same,Alanine uptake (nmol / mg protein x 6 min),"SNAT1; Figure 4B, 10mM, replicates 1-3",11.1023 nmol / mg protein x 6 min and 10.5839 nmol / mg protein x 6 min and 9.888 nmol / mg protein x 6 min
same,inhibition of alanine uptake,"SNAT1; HCC1806 D126, Figure 4B, betaine and MeAIB 10 mM",inhibition
same,inhibition of proline uptake,SNAT2; Figure 4A,strong inhibition
same,inhibition of proline uptake,SNAT2; Figure 4D (15 h starvation),almost completely
same,Proline uptake (nmol / mg protein x 6 min),"SNAT2; Figure 4A, 10mM, replicates 1-3",3.275 nmol / mg protein x 6 min and 3.216 nmol / mg protein x 6 min and 2.965 nmol / mg protein x 6 min
same,Proline uptake (nmol / mg protein x 6 min),"SNAT2; Figure 5B, reference inhibitors, replicates",1.301 nmol / mg protein x 6 min and 1.471 nmol / mg protein x 6 min and 1.547 nmol / mg protein x 6 min
"N[C@@H](CCC(=O)Nc1ccc([N+](=O)[O-])cc1)C(=O)O [GPNA, γ-glutamyl-p-nitroanilide]",inhibition of alanine transport,HCC1806 cells,inhibited a large fraction of alanine transport
OC[C@H]1OC(O)[C@H](O)[C@@H](O)[C@@H]1O (stereo partly shown) [glucose],influence on FMP signal,SNAT1 and SNAT2 [4],did not influence the signal
CC(=O)C(=O)O [pyruvate],influence on FMP signal,SNAT1 and SNAT2 [4],did not influence the signal
